Reference: the kinase profiling compilation of Christmann-Franck et al. (2016)

Key:
Experiment in all cases: KINOMEscan competition binding
Conditions in all cases: compound 10.0 µM
[1] = molecular target: MARK1 (human) (UniProt Q9P0L2)
[2] = molecular target: PIK3CA (human) (UniProt P42336)
[3] = molecular target: DAPK3 (human) (UniProt O43293)
[4] = molecular target: AXL (human) (UniProt P30530)
[5] = molecular target: JAK3 JH1 catalytic (human) (UniProt P52333)
[6] = molecular target: AKT3 (human) (UniProt Q9Y243)
[7] = molecular target: BRSK1 (human) (UniProt Q8TDC3)
[8] = molecular target: INSRR (human) (UniProt P14616)
[9] = molecular target: MYO3A (human) (UniProt Q8NEV4)
[10] = molecular target: PIK3CG (human) (UniProt P48736)
[11] = molecular target: MLTK (human) (UniProt Q9NYL2)
[12] = molecular target: TYRO3 (human) (UniProt Q06418)
[13] = molecular target: ICK (human) (UniProt Q9UPZ9)
[14] = molecular target: CSNK1D (human) (UniProt P48730)
[15] = molecular target: CDK2 (human) (UniProt P24941)
[16] = molecular target: AURKA (human) (UniProt O14965)
[17] = molecular target: CDKL2 (human) (UniProt Q92772)
[18] = molecular target: SIK2 (human) (UniProt Q9H0K1)
[19] = molecular target: ACVR1B (human) (UniProt P36896)
[20] = system: PIK3CA (human), P42336 [M1043I]
[21] = system: EGFR (human), P00533 [A750P; 747-749 del]
[22] = molecular target: CDK14 (human) (UniProt O94921)
[23] = molecular target: CSNK2A2 (human) (UniProt P19784)
[24] = molecular target: RPS6KA4 KD1 (human) (UniProt O75676)
[25] = molecular target: MYLK4 (human) (UniProt Q86YV6)
[26] = molecular target: PAK2 (human) (UniProt Q13177)
[27] = molecular target: WEE2 (human) (UniProt P0C1S8)
[28] = molecular target: YES1 (human) (UniProt P07947)
[29] = molecular target: PRKAA1 (human) (UniProt Q13131)
[30] = molecular target: NEK2 (human) (UniProt P51955)
[31] = molecular target: MAPKAPK2 (human) (UniProt P49137)
[32] = molecular target: ACVR1 (human) (UniProt Q04771)
[33] = molecular target: IRAK3 (human) (UniProt Q9Y616)
[34] = molecular target: MYLK (human) (UniProt Q15746)
[35] = molecular target: MAPK14 (human) (UniProt Q16539)
[36] = molecular target: TEK (human) (UniProt Q02763)
[37] = system: BMX (human), P51813 [V600E]
[38] = molecular target: LCK (human) (UniProt P06239)
[39] = molecular target: CDK4 CCND1 (human) (UniProt P11802+P24385)
[40] = molecular target: LRRK2 (human) (UniProt Q5S007)

Chain of MYLK (human) (Q15746 whole entry, looked up): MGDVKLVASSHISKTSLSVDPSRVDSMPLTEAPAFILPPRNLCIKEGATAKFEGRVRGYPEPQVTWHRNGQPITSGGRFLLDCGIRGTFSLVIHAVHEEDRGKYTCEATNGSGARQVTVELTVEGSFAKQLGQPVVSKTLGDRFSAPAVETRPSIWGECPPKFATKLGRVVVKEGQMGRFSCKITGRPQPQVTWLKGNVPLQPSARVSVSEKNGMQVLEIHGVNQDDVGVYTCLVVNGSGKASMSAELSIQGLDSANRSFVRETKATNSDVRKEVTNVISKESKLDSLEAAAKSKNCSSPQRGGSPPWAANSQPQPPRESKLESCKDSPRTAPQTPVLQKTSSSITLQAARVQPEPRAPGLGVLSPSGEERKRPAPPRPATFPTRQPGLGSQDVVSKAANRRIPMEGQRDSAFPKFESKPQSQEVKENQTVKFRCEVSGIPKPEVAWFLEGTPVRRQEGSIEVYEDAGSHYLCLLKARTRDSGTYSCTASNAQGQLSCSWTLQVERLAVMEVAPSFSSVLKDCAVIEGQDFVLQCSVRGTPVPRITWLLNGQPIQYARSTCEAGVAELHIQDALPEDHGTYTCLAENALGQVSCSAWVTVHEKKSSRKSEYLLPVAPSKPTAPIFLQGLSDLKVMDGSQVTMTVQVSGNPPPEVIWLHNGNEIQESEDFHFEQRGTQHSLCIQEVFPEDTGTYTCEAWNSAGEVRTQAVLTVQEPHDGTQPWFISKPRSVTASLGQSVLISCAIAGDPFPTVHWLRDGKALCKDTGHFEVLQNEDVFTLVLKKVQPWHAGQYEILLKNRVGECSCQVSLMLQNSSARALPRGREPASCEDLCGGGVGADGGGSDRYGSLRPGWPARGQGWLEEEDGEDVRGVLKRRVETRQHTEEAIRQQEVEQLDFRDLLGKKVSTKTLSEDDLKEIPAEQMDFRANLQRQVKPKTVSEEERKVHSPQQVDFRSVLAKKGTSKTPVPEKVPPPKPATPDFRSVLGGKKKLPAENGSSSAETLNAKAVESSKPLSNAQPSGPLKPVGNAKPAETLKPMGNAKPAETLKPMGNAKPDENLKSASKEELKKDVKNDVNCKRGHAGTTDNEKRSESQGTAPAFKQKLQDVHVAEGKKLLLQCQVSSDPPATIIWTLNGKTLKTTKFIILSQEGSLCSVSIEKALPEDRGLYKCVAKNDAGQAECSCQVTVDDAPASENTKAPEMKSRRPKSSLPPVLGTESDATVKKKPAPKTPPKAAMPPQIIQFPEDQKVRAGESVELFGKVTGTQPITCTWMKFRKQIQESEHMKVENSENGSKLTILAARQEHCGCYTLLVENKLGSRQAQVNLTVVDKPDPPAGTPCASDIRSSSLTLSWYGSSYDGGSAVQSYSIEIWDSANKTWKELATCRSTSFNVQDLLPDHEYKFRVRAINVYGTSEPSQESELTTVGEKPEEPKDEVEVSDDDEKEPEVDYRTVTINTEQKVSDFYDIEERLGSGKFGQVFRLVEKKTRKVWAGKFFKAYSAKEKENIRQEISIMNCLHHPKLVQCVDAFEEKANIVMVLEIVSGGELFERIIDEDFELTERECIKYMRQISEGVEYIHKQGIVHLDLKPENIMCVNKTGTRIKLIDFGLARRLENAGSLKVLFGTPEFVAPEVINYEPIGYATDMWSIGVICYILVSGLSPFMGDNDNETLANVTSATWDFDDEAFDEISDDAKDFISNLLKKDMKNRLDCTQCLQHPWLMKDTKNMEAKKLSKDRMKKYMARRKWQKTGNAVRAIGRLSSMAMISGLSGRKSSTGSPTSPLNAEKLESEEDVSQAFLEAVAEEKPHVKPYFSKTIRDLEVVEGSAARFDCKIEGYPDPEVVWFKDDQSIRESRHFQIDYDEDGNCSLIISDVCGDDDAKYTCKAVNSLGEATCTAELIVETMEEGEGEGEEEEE
Chain of TYRO3 (human) (Q06418 whole entry, looked up): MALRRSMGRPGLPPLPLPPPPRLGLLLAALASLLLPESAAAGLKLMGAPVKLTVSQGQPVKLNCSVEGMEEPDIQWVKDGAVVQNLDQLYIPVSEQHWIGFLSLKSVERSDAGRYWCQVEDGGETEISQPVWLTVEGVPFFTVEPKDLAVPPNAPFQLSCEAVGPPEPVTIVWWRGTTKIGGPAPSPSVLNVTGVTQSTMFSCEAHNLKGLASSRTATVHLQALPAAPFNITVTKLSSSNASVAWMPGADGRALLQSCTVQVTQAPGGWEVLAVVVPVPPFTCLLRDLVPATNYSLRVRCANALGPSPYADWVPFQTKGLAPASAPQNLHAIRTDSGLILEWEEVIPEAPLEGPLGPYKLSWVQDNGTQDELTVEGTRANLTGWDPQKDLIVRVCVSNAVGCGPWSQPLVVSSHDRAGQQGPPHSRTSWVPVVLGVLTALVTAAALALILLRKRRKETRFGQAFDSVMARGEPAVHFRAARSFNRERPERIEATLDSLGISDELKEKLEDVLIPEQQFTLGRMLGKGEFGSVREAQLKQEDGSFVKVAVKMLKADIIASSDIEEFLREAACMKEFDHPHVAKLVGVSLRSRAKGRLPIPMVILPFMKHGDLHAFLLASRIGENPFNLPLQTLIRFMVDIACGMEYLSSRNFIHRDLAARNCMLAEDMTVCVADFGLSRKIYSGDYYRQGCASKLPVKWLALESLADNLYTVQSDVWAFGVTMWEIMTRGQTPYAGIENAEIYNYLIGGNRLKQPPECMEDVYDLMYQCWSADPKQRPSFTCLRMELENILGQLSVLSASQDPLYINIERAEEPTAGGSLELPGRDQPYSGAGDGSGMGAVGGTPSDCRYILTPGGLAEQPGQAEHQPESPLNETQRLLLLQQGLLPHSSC
Chain of YES1 (human) (P07947 whole entry, looked up): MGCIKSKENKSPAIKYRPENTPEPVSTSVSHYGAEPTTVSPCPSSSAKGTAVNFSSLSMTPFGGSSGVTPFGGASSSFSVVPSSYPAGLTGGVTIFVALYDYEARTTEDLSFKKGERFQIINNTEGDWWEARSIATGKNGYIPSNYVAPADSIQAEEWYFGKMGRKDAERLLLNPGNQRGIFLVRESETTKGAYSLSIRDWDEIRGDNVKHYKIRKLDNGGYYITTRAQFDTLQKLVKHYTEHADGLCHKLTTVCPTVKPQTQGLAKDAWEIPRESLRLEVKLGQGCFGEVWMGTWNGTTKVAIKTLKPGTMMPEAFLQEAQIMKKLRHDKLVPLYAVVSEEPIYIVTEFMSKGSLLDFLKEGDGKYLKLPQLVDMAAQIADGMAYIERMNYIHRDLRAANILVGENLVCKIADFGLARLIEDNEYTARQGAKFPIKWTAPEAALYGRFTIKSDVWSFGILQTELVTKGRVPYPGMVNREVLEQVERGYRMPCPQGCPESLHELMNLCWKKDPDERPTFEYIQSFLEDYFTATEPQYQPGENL
Chain of CDKL2 (human) (Q92772 whole entry, looked up): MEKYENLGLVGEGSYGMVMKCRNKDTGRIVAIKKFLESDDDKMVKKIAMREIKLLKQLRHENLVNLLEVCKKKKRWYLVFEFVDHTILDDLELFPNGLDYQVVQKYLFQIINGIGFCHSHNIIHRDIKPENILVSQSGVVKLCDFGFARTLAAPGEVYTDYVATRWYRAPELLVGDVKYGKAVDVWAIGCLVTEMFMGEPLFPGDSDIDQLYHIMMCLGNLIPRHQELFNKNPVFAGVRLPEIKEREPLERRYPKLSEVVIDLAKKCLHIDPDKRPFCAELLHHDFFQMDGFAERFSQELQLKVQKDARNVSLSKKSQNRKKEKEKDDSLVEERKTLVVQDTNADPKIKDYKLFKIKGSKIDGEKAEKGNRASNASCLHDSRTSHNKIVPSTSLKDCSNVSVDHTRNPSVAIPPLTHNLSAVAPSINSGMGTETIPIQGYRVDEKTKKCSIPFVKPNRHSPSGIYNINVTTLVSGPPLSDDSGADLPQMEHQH
Chain of MAPKAPK2 (human) (P49137 whole entry, looked up): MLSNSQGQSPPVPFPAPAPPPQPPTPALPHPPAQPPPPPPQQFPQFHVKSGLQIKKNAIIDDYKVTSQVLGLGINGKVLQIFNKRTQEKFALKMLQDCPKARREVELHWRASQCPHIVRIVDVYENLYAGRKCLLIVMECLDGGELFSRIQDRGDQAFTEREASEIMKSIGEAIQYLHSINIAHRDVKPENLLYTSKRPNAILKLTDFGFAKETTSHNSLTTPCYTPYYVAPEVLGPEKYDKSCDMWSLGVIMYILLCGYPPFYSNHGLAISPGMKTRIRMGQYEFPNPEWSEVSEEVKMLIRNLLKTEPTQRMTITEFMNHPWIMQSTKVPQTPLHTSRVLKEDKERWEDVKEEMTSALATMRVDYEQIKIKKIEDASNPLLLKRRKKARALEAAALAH
Chain of IRAK3 (human) (Q9Y616 whole entry, looked up): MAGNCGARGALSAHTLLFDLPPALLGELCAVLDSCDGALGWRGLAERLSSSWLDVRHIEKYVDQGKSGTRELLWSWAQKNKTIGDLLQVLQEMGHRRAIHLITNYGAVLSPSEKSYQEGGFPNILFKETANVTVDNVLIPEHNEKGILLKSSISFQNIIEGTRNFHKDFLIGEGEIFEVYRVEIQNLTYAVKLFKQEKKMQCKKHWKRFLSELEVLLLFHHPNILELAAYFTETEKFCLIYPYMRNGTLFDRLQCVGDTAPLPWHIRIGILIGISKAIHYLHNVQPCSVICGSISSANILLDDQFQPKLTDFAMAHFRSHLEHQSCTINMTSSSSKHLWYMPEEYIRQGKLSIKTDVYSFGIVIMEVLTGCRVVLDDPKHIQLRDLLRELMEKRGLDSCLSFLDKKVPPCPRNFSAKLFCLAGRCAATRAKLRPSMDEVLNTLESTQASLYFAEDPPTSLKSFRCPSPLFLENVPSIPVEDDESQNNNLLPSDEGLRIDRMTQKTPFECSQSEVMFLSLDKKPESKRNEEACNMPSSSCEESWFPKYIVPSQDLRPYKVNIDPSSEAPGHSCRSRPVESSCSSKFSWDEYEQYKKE

SMILES	kinase still bound, per cent of control [1] [%]	kinase still bound, per cent of control [2] [%]	kinase still bound, per cent of control [3] [%]	kinase still bound, per cent of control [4] [%]	kinase still bound, per cent of control [5] [%]	kinase still bound, per cent of control [7] [%]	kinase still bound, per cent of control [8] [%]	kinase still bound, per cent of control [9] [%]	kinase still bound, per cent of control [10] [%]	kinase still bound, per cent of control [12] [%]	kinase still bound, per cent of control [13] [%]	kinase still bound, per cent of control [14] [%]	kinase still bound, per cent of control [15] [%]	kinase still bound, per cent of control [16] [%]	kinase still bound, per cent of control [17] [%]	kinase still bound, per cent of control [18] [%]	kinase still bound, per cent of control [19] [%]	kinase still bound, per cent of control [20] [%]	kinase still bound, per cent of control [22] [%]	kinase still bound, per cent of control [23] [%]	further results
Cc1cn(-c2cc(C(=O)Nc3ccc(C)c(NC(=O)c4ccno4)c3)cc(C(F)(F)F)c2)cn1	100	100	100	100	100	100	100	100	100	100	100	100	100	100	100	100	100	100	100	100	kinase still bound, per cent of control [6]: 100%; kinase still bound, per cent of control [11]: 7.8%; kinase still bound, per cent of control [21]: 100%; kinase still bound, per cent of control [24]: 100%; kinase still bound, per cent of control [25]: 100%; kinase still bound, per cent of control [26]: 100%; kinase still bound, per cent of control [27]: 100%; kinase still bound, per cent of control [28]: 13%; kinase still bound, per cent of control [29]: 100%; kinase still bound, per cent of control [30]: 100%; kinase still bound, per cent of control [31]: 100%; kinase still bound, per cent of control [32]: 100%; kinase still bound, per cent of control [33]: 100%; kinase still bound, per cent of control [34]: 100%; kinase still bound, per cent of control [35]: 0.3%; kinase still bound, per cent of control [36]: 100%; kinase still bound, per cent of control [37]: 1.3%; kinase still bound, per cent of control [38]: 4%
CCN(CCO)CCCOc1ccc2c(Nc3cc(CC(=O)Nc4cccc(F)c4)[nH]n3)ncnc2c1	98	100	82	1.4	87	64	76	81	100	100	74	71	84	6.5	18	70	88	100	100	86	kinase still bound, per cent of control [39]: 92%; kinase still bound, per cent of control [6]: 88%; kinase still bound, per cent of control [11]: 63%; kinase still bound, per cent of control [24]: 73%; kinase still bound, per cent of control [26]: 100%; kinase still bound, per cent of control [27]: 100%; kinase still bound, per cent of control [28]: 42%; kinase still bound, per cent of control [29]: 64%; kinase still bound, per cent of control [30]: 83%; kinase still bound, per cent of control [31]: 100%; kinase still bound, per cent of control [32]: 81%; kinase still bound, per cent of control [33]: 37%; kinase still bound, per cent of control [34]: 80%; kinase still bound, per cent of control [40]: 100%; kinase still bound, per cent of control [35]: 100%; kinase still bound, per cent of control [36]: 13%; kinase still bound, per cent of control [37]: 100%
CC(=O)c1c(C)c2cnc(Nc3ccc(N4CCNCC4)cn3)nc2n(C2CCCC2)c1=O	35	69	0.45	16	8.5	68	98	58	6.8	93	38	22	20	83	6.8	63	96	68	5	0.65	kinase still bound, per cent of control [39]: 0%; kinase still bound, per cent of control [24]: 75%; kinase still bound, per cent of control [25]: 35%; kinase still bound, per cent of control [26]: 93%; kinase still bound, per cent of control [27]: 75%; kinase still bound, per cent of control [28]: 83%; kinase still bound, per cent of control [29]: 22%; kinase still bound, per cent of control [30]: 31%; kinase still bound, per cent of control [32]: 80%; kinase still bound, per cent of control [33]: 36%; kinase still bound, per cent of control [34]: 20%; kinase still bound, per cent of control [40]: 50%
COc1cc2c(Nc3ccc(NC(=O)c4ccccc4)cc3)ncnc2cc1OCCCN1CCOCC1	100	100	100	1.8	62	79	100	79	100	60	100	71	82	8.6	12	63	100	99	100	100	kinase still bound, per cent of control [39]: 93%; kinase still bound, per cent of control [6]: 100%; kinase still bound, per cent of control [11]: 34%; kinase still bound, per cent of control [21]: 22%; kinase still bound, per cent of control [24]: 100%; kinase still bound, per cent of control [25]: 100%; kinase still bound, per cent of control [26]: 89%; kinase still bound, per cent of control [27]: 100%; kinase still bound, per cent of control [28]: 16%; kinase still bound, per cent of control [29]: 62%; kinase still bound, per cent of control [30]: 51%; kinase still bound, per cent of control [31]: 100%; kinase still bound, per cent of control [32]: 100%; kinase still bound, per cent of control [33]: 17%; kinase still bound, per cent of control [34]: 92%; kinase still bound, per cent of control [40]: 73%; kinase still bound, per cent of control [35]: 100%; kinase still bound, per cent of control [36]: 33%; kinase still bound, per cent of control [37]: 100%
